Data set [1] deals with T1, Serine protease 1 (Bos taurus) (UniProt P00760).
T1 sequence (whole entry): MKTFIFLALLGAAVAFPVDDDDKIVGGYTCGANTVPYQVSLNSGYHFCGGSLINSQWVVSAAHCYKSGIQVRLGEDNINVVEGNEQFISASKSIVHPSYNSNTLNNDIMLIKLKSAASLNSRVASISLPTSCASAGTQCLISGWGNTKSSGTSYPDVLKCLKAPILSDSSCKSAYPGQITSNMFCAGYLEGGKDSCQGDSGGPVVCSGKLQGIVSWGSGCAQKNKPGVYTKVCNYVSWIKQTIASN
Description: (§1) Trypsin inhibitory potency was evaluated from the catalytic constant Kcat.

The target of data set [2] is T2, Serine protease 1 (Bos taurus, UniProt P00760).
T2 sequence (P00760 whole entry): T1 sequence (whole entry)
Nature of the data set: Inhibitory activity against trypsin.

Data set [3] addresses T2, Serine protease 1. Nature of the data set: Inhibitory activity against trypsin mediated Tyr-Gly-Aer-p- nitroaniline.
Data set [4] deals with T1, Serine protease 1 (Bos taurus). This is another data set of the same source.
Description: as §1
Substrate in data set [5]: CC[C@H](C)[C@H](NC(=O)[C@H](CCCCN)NC(=O)CNC(=O)[C@H](Cc1ccc(O)cc1)NC(=O)[C@@H](N)Cc1ccc(O)cc1)C(=O)N[C@@H](Cc1ccc(O)cc1)C(=O)N[C@@H](CCCN=C(N)N)C(=O)N1CCC[C@H]1C(=O)N[C@@H](CC(=O)O)C(=O)N[C@@H](CCCCN)C(=O)N[C@@H](CCSC)C(=O)O
Description: Trypsin inhibitory potency was evaluated from the Michaelis-Menten constant KM.
The following applies: Bos taurus.

Turning to `CC[C@H](C)[C@H](NC(=O)[C@H](CCCCN)NC(=O)[C@H](C)NC(=O)CNC(=O)[C@H](Cc1ccc(O)cc1)NC(=O)[C@@H](N)Cc1ccc(O)cc1)C(=O)N[C@@H](C)C(=O)N[C@@H](CCCN=C(N)N)C(=O)N1CCC[C@@H]1C(=O)N[C@@H](CC(=O)O)C(=O)N[C@@H](CCCCN)C(=O)N[C@@H](CCSC)C(=O)O`, the k cat in data set [1] was determined as 1.3 s⁻¹. Same read-out and setting: as for `CC[C@H](C)[C@H](NC(=O)[C@H](CCCCN)NC(=O)[C@H](C)NC(=O)CNC(=O)[C@H](Cc1ccc(O)cc1)NC(=O)[C@@H](N)Cc1ccc(O)cc1)C(=O)N[C@@H](Cc1ccc(O)cc1)C(=O)N[C@@H](C)C(=O)N1CCC[C@@H]1C(=O)N[C@@H](CC(=O)O)C(=O)N[C@@H](CCCCN)C(=O)N[C@@H](CCSC)C(=O)O`, the figure is 0.6 s⁻¹; as for `CC[C@H](C)[C@H](NC(=O)[C@H](CCCN=C(N)N)NC(=O)[C@H](C)NC(=O)CNC(=O)[C@H](Cc1ccc(O)cc1)NC(=O)[C@@H](N)Cc1ccc(O)cc1)C(=O)N[C@@H](Cc1ccc(O)cc1)C(=O)N[C@@H](CCCN=C(N)N)C(=O)N1CCC[C@@H]1C(=O)N[C@@H](CC(=O)O)C(=O)N[C@@H](CCCCN)C(=O)N[C@@H](CCSC)C(=O)O`, 30 s⁻¹. The same measure, in the same setting: with H-YYGAKAYRPDKM-OH the figure was 87 s⁻¹.

Regarding H-YYGAKIYRPDKM-OH, on Serine protease 1 [2], the IC50 was 10 µM. Further, affinity on Serine protease 1 [3] was put at a Ki of 9.4 µM.

Take H-YYGKIYRPDKM-OH: the k cat in data set [4] came to 0.73 s⁻¹.

B1: Serine protease 1 (Bos taurus), P00760 (protein)
chain: T1 sequence (whole entry)
Take B1: in data set [5], the Km was 24 mM.
